Results published in patent publication US4058659A, “6,8-Disubstituted purine derivatives of 9-β-D-ribofuranosyl 3',5'-cyclic phosphate” (ICN Pharmaceuticals, Inc., priority 1975, dated 1977).
Where a name gives a salt, the structure may show the parent alone. One block for each molecule: values may come before it.

How the values were obtained:
[1] = Antihypertensive properties in in vivo animal testing
[2] = Anti-inflammatory activity in in vivo animal testing
adenyl cyclase = assay: Inhibition of adenyl cyclase function; format: biochemical
phosphodiesterase = assay: Phosphodiesterase inhibition; format: biochemical
protein kinase = assay: Protein kinase activation relative to cyclic AMP; format: biochemical; details: compared with cyclic AMP
unanesthetized dogs = assay: Inotropic effect in unanesthetized dogs; format: in vivo, dog; details: compared with anesthetized dogs
Experimental: (§1) The measurement dP/dT max was used as the index of change in myocardial contractility (inotropism). Compound 12 was given as an intravenous infusion at the rate of 1 mg/kg per min. in total single doses of 1.0 to 10.0 mg/kg and the values are expresses as percent of control.

[3] = system: intact anesthetized dog (myocardial contractility); assay: In vivo positive inotropic effect (dP/dT max) in the intact anesthetized dog; details: i.v. infusion 1 mg/kg per min
Experimental: as §1
In Vivo Positive Inotropic Effect
Measurement of myocardial contractility (inotropism)
using dP/dT max (% of control) as index of measurement of inotropic

[4] = system: isolated cat papillary muscle; assay: Positive inotropic effect: % change in contractile force in isolated cat papillary muscle
[5] = system: renal and mesenteric blood flow; assay: Renal and mesenteric blood flow in anesthetized dogs; format: in vivo, dog

Molecule: CC(=O)O[C@@H]1[C@@H]2OP(=O)(O)OC[C@H]2O[C@H]1n1c(Sc2ccc(Cl)cc2)nc2c(Cl)ncnc21 [Compound 33, 2'-O-Acetyl-6-chloro-8-(p-chlorophenylthio)-9-β-D-ribofuranosylpurine 3',5'-Cyclic Phosphate Sodium Salt]
antihypertensive properties [1]: displayed antihypertensive properties
anti-inflammatory activity [2]: displayed anti-inflammatory activity

Molecule: CCN(CC)c1ncnc2c1nc(N(CC)CC)n2[C@@H]1O[C@@H]2COP(=O)(O)O[C@H]2[C@H]1O [Compound 11, 6,8-Bis-(diethylamino)-9-β-D-ribofuranosylpurine 3',5'-Cyclic Phosphate]
inhibition of adenyl cyclase function (adenyl cyclase): inhibit adenyl cyclase function
antihypertensive properties [1]: displayed antihypertensive properties
inhibition of phosphodiesterase (phosphodiesterase): inhibit phosphodiesterase markedly

Molecule: O=P1(O)OC[C@H]2O[C@@H](n3c(SCc4ccccc4)nc4c(N5CCCCC5)ncnc43)[C@H](O)[C@@H]2O1 [Compound 16, 8-(Benzylthio)-6-piperidino-9-β-D-ribofuranosylpurine 3',5'-Cyclic Phosphate]
inhibition of adenyl cyclase function (adenyl cyclase): inhibit adenyl cyclase function
inhibition of phosphodiesterase (phosphodiesterase): inhibit phosphodiesterase markedly
anti-inflammatory activity [2]: displayed anti-inflammatory activity

Molecule: 8-(Benzylthio)-6-(diethylamino)-9-β-D-ribofuranosylpurine 3',5'-CyclicPhosphate [Compound 12]
inotropic effect in unanesthetized dogs (unanesthetized dogs): same inotropic effect
dP/dT max (% of control) ([3]; 1.0 mg/kg, 1 minute after infusion): 120%
dP/dT max (% of control) ([3]; 1.0 mg/kg, 3 minutes after infusion): 120%
dP/dT max (% of control) ([3]; 1.0 mg/kg, 5 minutes after infusion): 130%
dP/dT max (% of control) ([3]; 1.0 mg/kg, 15 minutes after infusion): 110%
dP/dT max (% of control) ([3]; 3.1 mg/kg, 1 minute after infusion): 200%
dP/dT max (% of control) ([3]; 3.1 mg/kg, 3 minutes after infusion): 180%
dP/dT max (% of control) ([3]; 3.1 mg/kg, 5 minutes after infusion): 160%
dP/dT max (% of control) ([3]; 3.1 mg/kg, 15 minutes after infusion): 140%
dP/dT max (% of control) ([3]; 3.1 mg/kg, 30 minutes after infusion): 105%
dP/dT max (% of control) ([3]; 10.0 mg/kg, 1 minute after infusion): 210%
dP/dT max (% of control) ([3]; 10.0 mg/kg, 3 minutes after infusion): 200%
dP/dT max (% of control) ([3]; 10.0 mg/kg, 5 minutes after infusion): 180%
dP/dT max (% of control) ([3]; 10.0 mg/kg, 15 minutes after infusion): 140%
dP/dT max (% of control) ([3]; 10.0 mg/kg, 30 minutes after infusion): 100%
% change in Contractile Force (CF) ([4]; 1.0 μg/ml): 3.8%
% change in Contractile Force (CF) ([4]; 3.1 μg/ml): 8.0%
% change in Contractile Force (CF) ([4]; 10.0 μg/ml): 12.7%
% change in Contractile Force (CF) ([4]; 31.0 μg/ml): 27.0%
% change in Contractile Force (CF) ([4]; 100 μg/ml): 46.0%
% change in Contractile Force (CF) ([4]; 310 μg/ml): 56.0%
positive inotropic effect ([4]; statement in words, isolated cat papillary muscle): exhibit positive inotropic effect
mesenteric blood flow [5]: increase in renal and mesenteric blood flow
renal blood flow [5]: increase in renal and mesenteric blood flow

Molecule: Nc1nc2c(Cl)ncnc2n1[C@@H]1O[C@@H]2COP(=O)(O)O[C@H]2[C@H]1O [Compound 4, 8-Amino-6-chloro-9-β-D-ribofuranosylpurine 3',5'-Cyclic Phosphate]
inhibition of phosphodiesterase (phosphodiesterase): inhibit phosphodiesterase markedly
protein kinase activation (protein kinase): superior to cyclic AMP

Continued, values first:

inhibition of adenyl cyclase function (adenyl cyclase): inhibit adenyl cyclase function
protein kinase activation (protein kinase): superior to cyclic AMP
Molecule: CCCC(=O)O[C@@H]1[C@@H]2OP(=O)(O)OC[C@H]2O[C@H]1n1c(Cl)nc2c(Cl)ncnc21 [Compound 2b, 2'-O-Butyryl-6,8-dichloro-9-β-D-ribofuranosylpurine 3',5'-Cyclic Phosphate Sodium Salt]

inhibition of adenyl cyclase function (adenyl cyclase): inhibit adenyl cyclase function
protein kinase activation (protein kinase): superior to cyclic AMP
Molecule: CC(=O)O[C@@H]1[C@@H]2OP(=O)(O)OC[C@H]2O[C@H]1n1c(Cl)nc2c(Cl)ncnc21 [Compound 2a, 2'-O-Acetyl-6,8-dichloro-9-β-D-ribofuranosylpurine 3',5'-Cyclic Phosphate Sodium Salt]
